Measurements from US11040053B2, “Compositions and methods for activating “stimulator of interferon gene”13 dependent signalling” (CHINOOK THERAPEUTICS, INC., priority 2015, dated 2021).
“Also recorded” adds a separate entry of the source.

Tests used:
hSTING(REF) [1] = biological target: T1, hSTING(REF) (Homo sapiens, UniProt Q86WV6); assay: IFN-β luciferase reporter in HEK293T cells stably expressing hSTING(REF), digitonin permeabilization; details: FIGS. 6A-B, 0.1 μM to 100 μM and 6.25 μM CDN
Target sequence in this assay (Q86WV6 whole entry): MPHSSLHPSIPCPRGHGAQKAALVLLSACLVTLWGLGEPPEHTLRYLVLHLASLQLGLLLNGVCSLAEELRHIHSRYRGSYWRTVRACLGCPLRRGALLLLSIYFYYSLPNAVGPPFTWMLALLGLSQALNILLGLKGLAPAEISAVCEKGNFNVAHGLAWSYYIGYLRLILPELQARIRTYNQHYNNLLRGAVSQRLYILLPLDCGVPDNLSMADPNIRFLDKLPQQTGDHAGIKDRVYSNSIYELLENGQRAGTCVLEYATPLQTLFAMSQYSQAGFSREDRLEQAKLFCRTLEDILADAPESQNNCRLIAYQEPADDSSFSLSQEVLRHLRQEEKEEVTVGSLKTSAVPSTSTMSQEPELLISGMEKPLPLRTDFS
Description: 24 hours later, cells were stimulated with native and synthetic CDN derivative molecules using digitonin permeabilization to ensure uniform uptake.
After 20 min, the stimulation mixtures were removed and 200 ul of DMEM media supplemented with 10% (vol/vol) fetal bovine serum, 1% L-Glutamine, and 1% Penicillin/Streptomycin was added. Cells were incubated an additional 6 hours (37° C., 5% CO2) and then cell lysates were prepared and reporter gene activity measured on a Spectramax M3 luminometer using the Dual-Glo Luciferase Assay System (Promega, catalog #E2920) as described by the manufacturer. IFNβ firefly luciferase reporter gene activity was normalized to TK renilla luciferase gene activity and plotted as fold induction over activity in unstimulated cells (mean+/−s.e.m.).

hSTING HAQ allele = biological target: T2, hSTING HAQ allele (Homo sapiens, UniProt Q86WV6, G230A/H232R/R293Q/R71H); assay: IRF-3 inducible secreted luciferase reporter in THP1-Dual cells without digitonin; type: cell-based; details: for activity relative to OH reference compound, in words: Table 5 comment, THP1 cells without digitonin
T2 construct: a human monocyte cell line containing the hSTING HAQ allele; host or cells: THP1-Dual cells
T2 sequence (Q86WV6 whole entry R71H/G230A/H232R/R293Q): as the sequence (Q86WV6 whole entry) above, with R71H, G230A, H232R, R293Q counted along it
Summary of the method: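 THP1-Dual cells were exposed for 30 min, washed, and cultured overnight at 37 °C in fresh RPMI/10% FBS. Secreted luciferase in the supernatant was read with QUANTI-Luc as the type I interferon signal. EC50 was taken from a 10-point serial-dilution dose-response curve.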

[2] = biological target: T3, wild type (WT) STING allele (Homo sapiens, UniProt Q86WV6, H232R); assay: Cytokine transcript induction (qRT-PCR) in STING^WT/WT hPBMCs; type: cell-based; details: for relative normalized IFNβ expression, in words: FIGS. 7A-B, 2 hours stimulation, 100 μM to 0.1 μM
T3 construct: one donor was homozygous for the wild type (WT) STING allele; endogenous in cells; host or cells: human PBMCs, donor STING WT/WT
T3 sequence (Q86WV6 whole entry H232R): as the sequence (Q86WV6 whole entry) above, with H232R counted along it
Description: The induction of type I interferon was measured in human primary blood mononuclear cells (hPBMCs) to evaluate the potency of mono- or di-F-CDN compounds as described herein. hPBMCs from two unique donors were used: one donor was homozygous for the wild type (WT) STING allele (STING^WT/WT) and the other donor was homozygous for the so-called reference (REF) STING allele (STING^REF/REF). The STING genotype of these donors was determined by PCR amplification and sequencing: genomic DNA was isolated from 10^4 hPBMCs using Quick Extract DNA Extraction Solution (Epicentre) and was used to amplify regions of exon 3, 6, and 7 of the human STING gene.
Cells were incubated at 37° C., 5% CO2 with concentrations ranging from 100 μM to 0.1 μM of each CDN. After 2 hours (FIGS. 7 and 8) or 2 hours and 6 hours (FIGS. 9-13) stimulation, cells were harvested by centrifugation and washed once with phosphate-buffered saline. Cellular RNA was isolated using the Aurum Total RNA 96 Kit and cDNA was synthesized using the iScript cDNA Synthesis Kit. Target and reference gene expression was assessed by real-time qRT-PCR using PrimePCR probe assays and the CFX96 gene cycler (all reagents and equipment from BioRad). Normalized IFNβ expression was expressed relative to untreated cells. Target genes included type I interferon (IFNβ), Th1-associated cytokines (IFNγ, IL-12p40) and NF-kB dependent inflammatory cytokines (TNFα, IL-6). Reference genes included GUSB alone (FIGS. 7 and 8) or GUSB and HSP90AB1 (FIGS. 9-13).

HAQ allele hSTING = biological target: T4, HAQ allele hSTING (Homo sapiens, UniProt Q86WV6, G230A/H232R/R293Q); assay: Differential scanning fluorometry (DSF) binding to purified hSTING HAQ allele; details: for binding relative to OH reference compound, in words / binding relative to naturally produced 2′3′-(G)(A), in words: Table 4 comment, HAQ allele hSTING
T4 construct: DNA encoding amino acids 140-379 (amino acid numbering corresponding to Swiss Prot Q86WV6); 6xHIS (N, cleaved yes); SUMO (N, cleaved yes); made in house; host or cells: Rosetta2 (DE3) E. coli
T4 sequence (Q86WV6 140-379 G230A/H232R/R293Q limits assumed): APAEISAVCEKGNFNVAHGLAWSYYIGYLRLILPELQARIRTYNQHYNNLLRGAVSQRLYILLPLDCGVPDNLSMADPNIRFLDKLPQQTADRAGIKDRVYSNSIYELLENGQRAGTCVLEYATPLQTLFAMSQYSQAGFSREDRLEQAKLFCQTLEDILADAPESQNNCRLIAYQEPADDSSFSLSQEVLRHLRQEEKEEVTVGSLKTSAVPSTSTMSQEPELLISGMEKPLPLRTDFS

MC38 = MC38 colon carcinoma mouse model, intra-tumoral injection; type: in vivo, C57BL/6 female mice; details: FIG. 15B, IT 10 or 100 μg, three injections, vs HBSS
Description: To assess the ability of the fluorinated derivative compounds to promote anti-tumor immunity in diverse murine tumor models, tumor cells were implanted (in 100 μL PBS) subcutaneously on the lower back of 6-8 week old C57BL/6 female mice. Treatments began when tumors reached a volume of approximately 100 mm^3, on approximately day 14 post tumor implantation (see table below for tumor type, number of cells, and day of IT injection). The CDN compounds were administered by IT injection (10 or 100 μg in a total volume of 40 μL HBSS), and repeated every three days for a total of three injections. The compounds 3′3′-RR-(2′F-A)(2′F-A) and 3′3′-RR-(2′F-G)(2′F-A) and control mice given vehicle only (40 μL HBSS) were dosed. Tumors were measured twice weekly.

hSTING(REF) [3] = biological target: T1, hSTING(REF); assay: Differential scanning fluorometry (DSF) binding to purified hSTING REF allele; design: DNA encoding amino acids 140-379 (amino acid numbering corresponding to Swiss Prot Q86WV6); 6xHIS (N, cleaved yes); SUMO (N, cleaved yes); made in house; host or cells: Rosetta2 (DE3) E. coli; details: for Tm shift compared with non fluorine substituted compounds and 2′3′-(G)(A), in words: FIG. 2, hSTING (REF); for binding relative to OH reference compound, in words / binding relative to naturally produced 2′3′-(G)(A), in words: Table 4 comment, REF allele hSTING
Target sequence in this assay (Q86WV6 140-379): as the sequence (Q86WV6 140-379 G230A/H232R/R293Q limits assumed) above, with A91G, R93H, Q154R counted along it

[4] = DSF, 1 mg/ml STING AA140-379, ligand 1 mM

Nc1nc2c(ncn2[C@@H]2O[C@@H]3CO[P@@](=O)(S)O[C@H]4[C@@H](F)[C@H](n5cnc6c(N)ncnc65)O[C@@H]4CO[P@@](=O)(S)O[C@H]3[C@H]2F)c(=O)[nH]1 (stereo in doubt) [Compound 14, 2-Amino-9-((2R,3R,3aR,5R,7aR,9R,10R,10aR,12R,14aR)-9-(6-amino-9H-purin-9-yl)-3,10-difluoro-5,12-dimercapto-5,12-dioxidooctahydro-2H,7H-difuro [3,2-d:3′,2′-j][1,3,7,9]tetraoxa[2,8]diphosphacyclododecin-2-yl)-1,9-dihydro-6H-purin-6-one]
IFNβ luciferase reporter induction by hSTING(REF), in words (hSTING(REF) [1]): strongly induced IFNβ reporter activity, to a level similar to the endogenous cellular ligand 2′3′-(G)(A) | activity relative to OH reference compound, in words (hSTING HAQ allele): improved activity | relative normalized IFNβ expression, in words [2]: most potent inducer of type I interferon in STING^WT/WT hPBMCs | IFNβ level compared to the parent cGAMP compound ([2]; in the dose range tested): 10-100 fold | binding relative to OH reference compound, in words (HAQ allele hSTING): improved binding | binding relative to naturally produced 2′3′-(G)(A), in words (HAQ allele hSTING): improved binding | tumor volume, in words (MC38): elicited complete tumor regression at all doses tested | Tm shift compared with non fluorine substituted compounds and 2′3′-(G)(A), in words (hSTING(REF) [3]): increased Tm shift | binding relative to OH reference compound, in words (hSTING(REF) [3]): improved binding | binding relative to naturally produced 2′3′-(G)(A), in words (hSTING(REF) [3]): improved binding

Nc1ncnc2c1ncn2[C@@H]1O[C@@H]2CO[P@@](=O)(S)O[C@H]3[C@@H](F)[C@H](n4cnc5c(N)ncnc54)O[C@@H]3CO[P@@](=O)(S)O[C@H]2[C@H]1F [Compound 6, (2R,3R,3aR,5R,7aR,9R,10R,10aR,12R,14aR)-2,9-bis(6-amino-9H-purin-9-yl)-3,10-difluoro-5,12-dimercaptooctahydro-2H,7H-difuro[3,2-d:3′,2′-j][1,3,7,9]tetraoxa[2,8]diphosphacyclododecine 5,12-dioxide]
IFNβ luciferase reporter induction by hSTING(REF), in words (hSTING(REF) [1]): strongly induced IFNβ reporter activity, to a level similar to the endogenous cellular ligand 2′3′-(G)(A) | activity relative to OH reference compound, in words (hSTING HAQ allele): improved activity | EC50 (hSTING HAQ allele; without digitonin in THP1 cells (HAQ allele)): 19 µM | relative normalized IFNβ expression, in words ([2]; listed as 3′3′-RR-(2′F-A)(2′F-A)): induced similar levels of IFNβ; also recorded: induced higher levels of IFNβ transcript when compared to the 3′3′-(A)(A) compound; also recorded: stimulated higher levels of IFNβ transcript by STING^WT/WT hPBMCs when compared to non-canonical 2′3′-(G)(A) | hSTING Tm Shift HAQ (HAQ allele hSTING; [4]): 32.4 °C | binding relative to OH reference compound, in words (HAQ allele hSTING): improved binding | binding relative to naturally produced 2′3′-(G)(A), in words (HAQ allele hSTING): improved binding | tumor volume, in words (MC38): elicited complete tumor regression at all doses tested | hSTING Tm Shift REF (hSTING(REF) [3]; [4]): 9.1 °C | Tm shift compared with non fluorine substituted compounds and 2′3′-(G)(A), in words (hSTING(REF) [3]): increased Tm shift | binding relative to OH reference compound, in words (hSTING(REF) [3]): improved binding | binding relative to naturally produced 2′3′-(G)(A), in words (hSTING(REF) [3]): improved binding
